The values that follow are results of earlier work, collected in patent EP3137069B1, “NANOPARTICLE FORMULATION CONTAINING FARNESYLTHIOSALICYLIC ACID (SALIRASIB)” (Pehlivan, Sibel, priority 2014, dated 2015).

Converted amounts (≈) assume the structure as drawn.

In the case of `CC(C)=CCCC(C)=CCCC(C)=CCSc1ccccc1C(=O)O` [FTA, Farnesylthiosalicylic acid], the “solubility in organic solvents” value (organic solvents like ethanol, DMSO and dimethylformamide) was 20 mg/mL (≈ 55.8 mM). Also, where the note is “water”, the solubility in water result is on record as “insoluble”.
